Measured values taken from US20250375405A1, “N-LACTOYL-PHENYLALANINE FOR PREVENTING AND/OR TREATING ISCHEMIC HEART DISEASE AND METHOD FOR PREVENTING AND/OR TREATING ISCHEMIC HEART DISEASE” (Harbin Medical University, priority 2024, published 2025).

What was measured:
[1] = tested on: mouse model of myocardial ischemia; assay: Mouse model of myocardial ischemia (left anterior descending coronary artery ligation), echocardiographic cardiac function; assay type: in vivo, mice; conditions: mouse MI model, Lac-Phe 20 mg/kg intraperitoneally, 1 week later, compared with the MI group
Procedure: The surgery for left anterior descending coronary artery ligation was performed on mice to establish a mouse model of myocardial ischemia (MI group). […] Mice in the MI group were intraperitoneally injected with Lac-Phe (20 mg/kg), and then anesthetized 1 week later. An M-Mode echocardiogram was obtained under the guidance of B-Mode on a Doppler ultrasound Vevo2100 imaging system for small animals, and 10 or more cardiac cycles were recorded. Instrumental analysis software was used to measure various cardiac indicators of mice to assess the cardiac functions of the mice, including a left ventricular internal dimension systole (LVID), a left ventricular end systolic volume (LVESV), an inter-ventricular septum end-stolic thickness (IVS), an E/A ratio, an ejection fraction (EF), and a fraction shortening (FS).

[2] = tested on: human umbilical vein endothelial cells (HUVECs); assay: Viability of hypoxic endothelial cells, CCK8 method; assay type: cell-based; conditions: Lac-Phe final concentrations 5, 10, 20 and 40 μM added 8 hours before hypoxia for 24 hours
Procedure: The Lac-Phe was added to human umbilical vein endothelial cells (HUVECs), and 8 hours later, the HUVECs were placed in a hypoxia incubator and cultured under hypoxia for 24 hours (N2 95%, CO2 5%). The cell viability was evaluated by Cell Counting Kit-8 (CCK8) method for the normal control group (CTRL), hypoxia group (Hypoxia), and Lac-Phe-treated hypoxia group.

HUVECs [3] = assay: Endothelial cell migration, wound closure assay; assay type: cell-based, human; conditions: Lac-Phe final concentration 10 μM, 12, 24 and 36 hours, versus control with 0.1% DMSO
Procedure: HUVECs were divided into 2 groups: a control group (CTRL, including 0.1% of dimethylsulfoxide (DMSO)), and a Lac-Phe-treated group (final concentration: 10 μM). Cell monolayers were wounded in wells of a cell culture plate along the central axis of each well by an autoclaved white pipette tip, suspended cells in each well were washed with phosphate buffered saline (PBS), and a medium without fetal bovine serum was added to each well. The wounds were photographed with an inverted microscope, that is, the wound area was recorded at 0 hour. The cells were then further incubated in a cell culture incubator at 37° C. for 12 hours, 24 hours, and 36 hours. Then, the wounds were photographed under the inverted microscope, that is, the wound area was recorded. The ImageJ software was used to quantitatively assess the wound closure (FIG. 4A-FIG. 4B).

experimental mice = conditions: supplementation of Lac-Phe, earlier studies; cited from earlier work
[4] = tested on: Primary mouse cardiomyocytes; assay: Viability of hypoxic cardiomyocytes, CCK8 method; assay type: cell-based; conditions: Lac-Phe final concentrations 10 μM and 20 μM, hypoxia treatment for 24 hours
Procedure: Primary mouse cardiomyocytes were divided into the following 4 groups: a control group (CTRL, including 0.1% of DMSO), a hypoxia group (a hypoxia treatment was performed for 24 hours), and hypoxia+Lac-Phe groups (cardiomyocytes were treated with Lac-Phe at final concentrations of 10 μM and 20 μM, respectively, and a hypoxia treatment was performed for 24 hours). The viability of cardiomyocytes was assayed by the CCK8 method.
It can be seen from the experimental results that Lac-Phe has the function of protecting cardiomyocytes against hypoxic injury.

Macrophages (RAW264.7) = assay: LPS-induced pro-inflammatory cytokine expression in macrophages, qRT-PCR; assay type: cell-based; conditions: LPS 100 ng/ml, Lac-Phe final concentration 20 μM, 24 hours
Procedure: Macrophages (RAW264.7) were divided into the following 3 groups: a control group (CTRL, including 0.1% of DMSO), a lipopolysaccharide (LPS)-treated group (LPS-induced inflammatory responses in macrophages, a concentration: 100 ng/ml), and an LPS+Lac-Phe-treated group (Lac-Phe was added to LPS-induced macrophages at a final concentration of 20 μM). 24 hours after administration, RNA was extracted from cells in each group, and expression levels of pro-inflammatory cytokines IL-6 and TNFα in cells in each group were determined by quantitative real-time polymerase chain reaction (qRT-PCR). […] The above results also indicate that Lac-Phe has the anti-inflammatory potential.

HUVECs [5] = assay: Endothelial cell tube formation assay; assay type: cell-based, human; conditions: Lac-Phe final concentration 20 μM, 24 hours after administration
Procedure: HUVECs were divided into 2 groups: a control group (CTRL, including 0.1% of DMSO), and a Lac-Phe-treated group (final concentration: 20 μM). 24 hours after administration, the endothelial cell tube formation assay was performed.
It can be seen from the experimental results that Lac-Phe can increase the length of branches and the number of branch points formed from HUVECs (FIG. 5A-FIG. 5C). The above results also indicate that Lac-Phe has the potential to promote angiogenesis.

HUVECs [6] = assay: Apoptosis of hypoxic endothelial cells by flow cytometry; assay type: cell-based, human; conditions: Lac-Phe final concentration 20 μM, added 8 hours before hypoxia for 24 hours
Procedure: The Lac-Phe was added to HUVECs, and 8 hours later, the HUVECs were placed in a hypoxia incubator and cultured under hypoxia for 24 hours (N2 95%, CO2 5%). The cell apoptosis was determined by flow cytometry for the normal control group (CTRL), hypoxia group (Hypoxia), and Lac-Phe-treated hypoxia group.

Q: Which results are given for C[C@H](O)C(=O)N[C@@H](Cc1ccccc1)C(=O)O [Lac-Phe, N-lactoyl-phenylalanine]?
A: cardiac function (LVID, LVESV, IVS, E/A ratio, EF, FS) by echocardiogram [1]: significant improvement effect on the cardiac function; cell viability of hypoxic HUVECs [2]: significantly improved; migration of endothelial cells (wound closure) (HUVECs [3]): promoting the migration of endothelial cells; food intake of experimental mice (experimental mice): effectively reduce the food intake; viability of hypoxic cardiomyocytes [4]: significantly alleviate the hypoxic injury of cardiomyocytes; expression level of pro-inflammatory cytokine IL-6 (Macrophages (RAW264.7)): significantly decreased; expression level of pro-inflammatory cytokine TNFα (Macrophages (RAW264.7)): significantly decreased; length of branches formed from HUVECs (HUVECs [5]): increase; number of branch points formed from HUVECs (HUVECs [5]): increase; number of apoptotic HUVECs (HUVECs [6]): significantly reduced
